Data: patent US20180071242A1, “SUBSTITUTED ACYLANILIDES AND METHODS OF USE THEREOF” (University of Tennessee Research Foundation, priority 2006, published 2018)

Experiments:
CYP2C19 = target: T1, CYP2C19 (Homo sapiens, UniProt P33261); experiment: CYP inhibition screening, recombinant enzyme (fluorescent-based) assay; format: in vitro ADME; conditions: for Inhibition of CYP2C19 activity (in words): human, human cDNA-expressed (recombinant) CYP2C19, 30 min
T1 construct: purchased Gentest, BD Biosciences

CYP2C9 = target: T2, CYP2C9 (Homo sapiens, UniProt P11712); experiment: as above; format: in vitro ADME; conditions: for Inhibition of CYP2C9 activity (in words): human, 30 min
T2 construct: purchased Gentest, BD Biosciences

ER-β = target: T3, ER-β (Rattus norvegicus, UniProt Q62986); experiment: Transient transfection luciferase transactivation assay in HEK-293 cells; format: cell-based; conditions: for ER-β transactivation, agonist mode (in words): up to the highest tested concentration (1 μM); for Inhibition of estradiol-induced ER-β activity, antagonist mode (in words): with 1 nM estradiol
T3 construct: expressed in transfected cells; host or cells: HEK-293

CYP3A4 = target: T4, CYP3A4 (Homo sapiens, UniProt P08684); experiment: CYP inhibition screening, recombinant enzyme (fluorescent-based) assay; format: in vitro ADME
T4 construct: purchased Gentest, BD Biosciences

MR = target: T5, MR (Rattus norvegicus, UniProt P22199); experiment: Transient transfection luciferase transactivation assay in HEK-293 cells; format: cell-based; conditions: for MR-mediated transactivation, agonist mode (in words): all tested concentrations; for Inhibition of aldosterone-induced MR-mediated transactivation, antagonist mode (in words): with 1 nM aldosterone
T5 construct: expressed in transfected cells; host or cells: HEK-293
T5 sequence (P22199 1-981): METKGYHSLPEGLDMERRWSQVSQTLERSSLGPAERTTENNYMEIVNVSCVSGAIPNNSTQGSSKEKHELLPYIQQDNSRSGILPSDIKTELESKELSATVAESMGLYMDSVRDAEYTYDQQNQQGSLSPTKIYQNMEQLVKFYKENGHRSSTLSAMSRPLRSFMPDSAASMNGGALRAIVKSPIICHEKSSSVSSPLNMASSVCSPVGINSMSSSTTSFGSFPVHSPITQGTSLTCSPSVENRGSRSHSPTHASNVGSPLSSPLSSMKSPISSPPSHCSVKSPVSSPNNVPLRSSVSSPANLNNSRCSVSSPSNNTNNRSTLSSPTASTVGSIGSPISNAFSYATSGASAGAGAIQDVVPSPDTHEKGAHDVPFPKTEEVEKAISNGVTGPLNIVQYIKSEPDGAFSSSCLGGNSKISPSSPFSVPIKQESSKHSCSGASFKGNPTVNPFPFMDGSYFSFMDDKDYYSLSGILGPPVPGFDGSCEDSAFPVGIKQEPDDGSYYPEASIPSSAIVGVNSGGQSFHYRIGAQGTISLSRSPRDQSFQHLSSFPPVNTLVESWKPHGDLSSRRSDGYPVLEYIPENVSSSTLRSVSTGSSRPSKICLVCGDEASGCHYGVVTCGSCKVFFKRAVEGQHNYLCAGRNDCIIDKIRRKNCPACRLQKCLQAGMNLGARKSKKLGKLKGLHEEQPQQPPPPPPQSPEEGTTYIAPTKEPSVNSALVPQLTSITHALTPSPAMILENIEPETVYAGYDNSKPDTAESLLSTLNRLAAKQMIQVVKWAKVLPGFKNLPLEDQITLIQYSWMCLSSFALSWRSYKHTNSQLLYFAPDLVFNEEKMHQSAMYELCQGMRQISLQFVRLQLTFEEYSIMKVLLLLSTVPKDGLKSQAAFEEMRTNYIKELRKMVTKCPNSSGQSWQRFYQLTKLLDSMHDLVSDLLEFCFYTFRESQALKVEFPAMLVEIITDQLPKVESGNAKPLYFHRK

GR = target: T6, GR (Rattus norvegicus, UniProt P06536); experiment: as above; format: cell-based; conditions: for GR-mediated transactivation, agonist mode (in words): all tested concentrations; for Inhibition of dexamethasone-induced GR-mediated transactivation, antagonist mode (in words): with 1 nM dexamethasone
T6 construct: expressed in transfected cells; host or cells: HEK-293
T6 sequence (P06536 1-795): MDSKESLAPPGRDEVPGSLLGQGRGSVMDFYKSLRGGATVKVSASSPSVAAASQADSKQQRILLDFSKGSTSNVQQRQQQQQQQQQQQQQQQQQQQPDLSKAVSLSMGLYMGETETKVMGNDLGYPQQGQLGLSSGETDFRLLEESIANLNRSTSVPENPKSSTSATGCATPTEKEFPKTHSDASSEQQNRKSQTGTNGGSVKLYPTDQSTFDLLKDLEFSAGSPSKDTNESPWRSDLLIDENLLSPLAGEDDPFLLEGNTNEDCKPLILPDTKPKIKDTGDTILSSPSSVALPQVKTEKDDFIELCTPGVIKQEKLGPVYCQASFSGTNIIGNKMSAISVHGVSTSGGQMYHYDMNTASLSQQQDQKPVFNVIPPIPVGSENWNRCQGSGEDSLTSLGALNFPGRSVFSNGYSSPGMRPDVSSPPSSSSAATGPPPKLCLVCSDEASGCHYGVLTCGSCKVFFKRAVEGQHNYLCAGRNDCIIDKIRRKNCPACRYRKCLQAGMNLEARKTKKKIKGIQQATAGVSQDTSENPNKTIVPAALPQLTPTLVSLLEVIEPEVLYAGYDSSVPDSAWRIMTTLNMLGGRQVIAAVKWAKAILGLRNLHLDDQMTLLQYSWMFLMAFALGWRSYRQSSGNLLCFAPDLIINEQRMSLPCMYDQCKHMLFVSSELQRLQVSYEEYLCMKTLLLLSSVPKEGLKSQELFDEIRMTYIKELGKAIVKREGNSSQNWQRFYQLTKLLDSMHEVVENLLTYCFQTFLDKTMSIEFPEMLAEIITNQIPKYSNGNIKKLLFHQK

ER-α = target: T7, ER-α (Rattus norvegicus, UniProt P06211); experiment: as above; format: cell-based; conditions: for ER-α transactivation, agonist mode (in words): up to the highest tested concentration (1 μM); for Inhibition of estradiol-induced ER-α activity, antagonist mode (in words): with 1 nM estradiol
T7 construct: expressed in transfected cells; host or cells: HEK-293
T7 sequence (P06211 1-600): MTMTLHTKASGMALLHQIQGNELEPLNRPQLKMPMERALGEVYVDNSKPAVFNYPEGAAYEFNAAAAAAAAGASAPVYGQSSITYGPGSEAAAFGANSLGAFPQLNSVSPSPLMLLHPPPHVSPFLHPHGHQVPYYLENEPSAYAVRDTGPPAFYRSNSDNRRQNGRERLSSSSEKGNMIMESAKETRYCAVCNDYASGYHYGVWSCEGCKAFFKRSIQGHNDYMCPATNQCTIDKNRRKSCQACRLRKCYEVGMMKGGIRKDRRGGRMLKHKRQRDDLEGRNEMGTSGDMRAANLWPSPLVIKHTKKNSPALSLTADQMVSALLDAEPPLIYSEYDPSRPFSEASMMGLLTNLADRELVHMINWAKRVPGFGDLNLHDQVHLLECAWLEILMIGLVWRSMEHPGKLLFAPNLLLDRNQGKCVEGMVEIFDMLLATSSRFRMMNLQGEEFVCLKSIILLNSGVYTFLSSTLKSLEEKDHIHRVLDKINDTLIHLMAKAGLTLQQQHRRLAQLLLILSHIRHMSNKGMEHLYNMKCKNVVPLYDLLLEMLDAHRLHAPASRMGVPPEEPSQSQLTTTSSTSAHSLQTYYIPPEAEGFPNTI

T1 sequence (P33261 whole entry): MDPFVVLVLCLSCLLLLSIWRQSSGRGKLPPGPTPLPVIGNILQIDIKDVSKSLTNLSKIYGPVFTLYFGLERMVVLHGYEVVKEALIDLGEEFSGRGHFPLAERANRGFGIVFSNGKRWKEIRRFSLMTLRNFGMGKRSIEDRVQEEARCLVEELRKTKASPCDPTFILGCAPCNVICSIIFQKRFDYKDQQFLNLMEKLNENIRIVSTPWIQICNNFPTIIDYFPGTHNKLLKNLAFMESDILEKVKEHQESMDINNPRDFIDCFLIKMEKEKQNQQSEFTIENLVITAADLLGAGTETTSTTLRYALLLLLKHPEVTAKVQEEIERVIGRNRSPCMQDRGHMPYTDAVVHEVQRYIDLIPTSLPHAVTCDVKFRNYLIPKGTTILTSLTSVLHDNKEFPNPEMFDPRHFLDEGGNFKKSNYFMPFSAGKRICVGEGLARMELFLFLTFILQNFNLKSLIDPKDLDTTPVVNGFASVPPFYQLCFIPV
T3 sequence (Q62986 whole entry): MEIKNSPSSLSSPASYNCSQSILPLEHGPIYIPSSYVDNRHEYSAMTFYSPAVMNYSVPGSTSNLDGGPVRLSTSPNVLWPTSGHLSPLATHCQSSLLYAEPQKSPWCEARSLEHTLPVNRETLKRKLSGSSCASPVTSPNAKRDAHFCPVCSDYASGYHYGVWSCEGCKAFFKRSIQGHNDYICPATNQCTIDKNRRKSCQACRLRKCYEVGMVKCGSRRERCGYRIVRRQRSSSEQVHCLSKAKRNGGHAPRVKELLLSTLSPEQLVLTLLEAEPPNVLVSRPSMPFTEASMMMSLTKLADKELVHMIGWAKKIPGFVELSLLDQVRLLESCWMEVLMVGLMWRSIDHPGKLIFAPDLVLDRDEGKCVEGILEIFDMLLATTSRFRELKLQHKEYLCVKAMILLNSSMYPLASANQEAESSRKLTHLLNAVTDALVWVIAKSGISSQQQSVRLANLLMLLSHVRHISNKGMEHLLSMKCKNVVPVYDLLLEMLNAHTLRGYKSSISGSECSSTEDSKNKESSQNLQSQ
T4 sequence (P08684 whole entry): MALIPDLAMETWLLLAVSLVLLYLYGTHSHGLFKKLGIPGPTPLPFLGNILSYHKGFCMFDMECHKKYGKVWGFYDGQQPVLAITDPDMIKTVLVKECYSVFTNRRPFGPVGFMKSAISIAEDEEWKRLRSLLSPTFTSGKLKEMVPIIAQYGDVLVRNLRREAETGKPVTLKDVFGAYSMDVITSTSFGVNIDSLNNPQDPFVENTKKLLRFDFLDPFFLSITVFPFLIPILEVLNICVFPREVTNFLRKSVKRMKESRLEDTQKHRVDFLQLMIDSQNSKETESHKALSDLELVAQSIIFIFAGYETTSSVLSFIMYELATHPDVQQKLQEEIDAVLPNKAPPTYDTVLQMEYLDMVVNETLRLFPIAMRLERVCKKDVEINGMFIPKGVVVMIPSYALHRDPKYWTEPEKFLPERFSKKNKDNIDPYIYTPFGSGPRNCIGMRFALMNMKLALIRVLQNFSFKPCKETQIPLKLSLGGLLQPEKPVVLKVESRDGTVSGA
T2 sequence (P11712 whole entry): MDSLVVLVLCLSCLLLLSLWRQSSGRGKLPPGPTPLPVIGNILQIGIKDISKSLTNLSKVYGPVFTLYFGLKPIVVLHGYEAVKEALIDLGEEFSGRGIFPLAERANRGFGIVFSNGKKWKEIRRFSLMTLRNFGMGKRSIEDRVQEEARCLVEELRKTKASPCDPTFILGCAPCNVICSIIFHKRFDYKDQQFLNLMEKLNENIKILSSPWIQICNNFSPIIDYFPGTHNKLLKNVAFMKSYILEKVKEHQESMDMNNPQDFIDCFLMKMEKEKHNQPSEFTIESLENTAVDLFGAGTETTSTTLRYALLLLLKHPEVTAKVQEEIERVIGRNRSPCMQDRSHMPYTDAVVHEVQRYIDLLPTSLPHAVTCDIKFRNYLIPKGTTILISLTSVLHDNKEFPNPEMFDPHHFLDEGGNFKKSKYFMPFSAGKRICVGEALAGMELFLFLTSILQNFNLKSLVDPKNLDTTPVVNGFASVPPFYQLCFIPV

Q: C[C@](O)(COc1ccc(Cl)cc1)C(=O)Nc1ccc(C#N)c(C(F)(F)F)c1 [S-(II)] was tested. Which IC50 (CYP2C19) did it give?
A: 100 nM

Q: And the “Inhibition of CYP2C19 activity (in words)” value (CYP2C19)?
A: moderate inhibition

Q: And the IC50 (CYP2C9)?
A: 3.8 µM

Q: And the “Inhibition of CYP2C9 activity (in words)” value (CYP2C9)?
A: moderate inhibition

Q: What about the “ER-β transactivation, agonist mode (in words)” value (from here on “ER-β transactivation”) (ER-β) of the same molecule?
A: failed to activate

Q: What about the “Inhibition of estradiol-induced ER-β activity, antagonist mode (in words)” value (ER-β) of the same molecule?
A: failed to alter

Q: What about the IC50 (CYP3A4) of the same molecule?
A: > 20 µM

Q: What about the “MR-mediated transactivation, agonist mode (in words)” value (MR) of the same molecule?
A: did not induce

Q: What about the “Inhibition of aldosterone-induced MR-mediated transactivation, antagonist mode (in words)” value (MR) of the same molecule?
A: not inhibited

Q: What about the “GR-mediated transactivation, agonist mode (in words)” value (GR) of the same molecule?
A: did not induce

Q: And the “Inhibition of dexamethasone-induced GR-mediated transactivation, antagonist mode (in words)” value (GR)?
A: not inhibited

Q: And the “ER-α transactivation, agonist mode (in words)” value (shortened to “ER-α transactivation”) (ER-α)?
A: failed to activate

Q: What about the “Inhibition of estradiol-induced ER-α activity, antagonist mode (in words)” value (ER-α) of the same molecule?
A: failed to alter

Q: With C[C@](O)(COc1ccc(F)cc1)C(=O)Nc1ccc(C#N)c(C(F)(F)F)c1 [S-(III)] as the molecule, how does the IC50 (CYP2C19) read?
A: 100 nM

Q: What about the “Inhibition of CYP2C19 activity (in words)” value (CYP2C19) of the same molecule?
A: moderate inhibition

Q: What about the IC50 (CYP2C9) of the same molecule?
A: 1.3 µM

Q: And the “Inhibition of CYP2C9 activity (in words)” value (CYP2C9)?
A: moderate inhibition

Q: And the “ER-β transactivation” value (ER-β)?
A: failed to activate

Q: What about the “Inhibition of estradiol-induced ER-β activity, antagonist mode (in words)” value (ER-β) of the same molecule?
A: failed to alter

Q: And the IC50 (CYP3A4)?
A: > 20 µM

Q: What about the “MR-mediated transactivation, agonist mode (in words)” value (MR) of the same molecule?
A: did not induce

Q: What about the “Inhibition of aldosterone-induced MR-mediated transactivation, antagonist mode (in words)” value (MR) of the same molecule?
A: not inhibited

Q: And the “GR-mediated transactivation, agonist mode (in words)” value (GR)?
A: did not induce

Q: And the “Inhibition of dexamethasone-induced GR-mediated transactivation, antagonist mode (in words)” value (GR)?
A: not inhibited

Q: What about the “ER-α transactivation” value (ER-α) of the same molecule?
A: failed to activate

Q: And the “Inhibition of estradiol-induced ER-α activity, antagonist mode (in words)” value (ER-α)?
A: failed to alter

Q: Which IC50 (CYP2C19) does the source give for C[C@](O)(COc1ccc(C#N)cc1)C(=O)Nc1ccc(C#N)c(Cl)c1 [S-(I), (S)—N-(3-chloro-4-cyanophenyl)-3-(4-cyanophenoxy)-2-hydroxy-2-methylpropanamide] here?
A: > 20000 nM

Q: And the IC50 (CYP2C9)?
A: 5.1 µM

Q: And the “Inhibition of CYP2C9 activity (in words)” value (CYP2C9)?
A: did not appreciably inhibit

Q: What about the “ER-β transactivation” value (ER-β) of the same molecule?
A: failed to activate

Q: And the “Inhibition of estradiol-induced ER-β activity, antagonist mode (in words)” value (ER-β)?
A: failed to alter

Q: What about the IC50 (CYP3A4) of the same molecule?
A: > 20 µM

Q: What about the “MR-mediated transactivation, agonist mode (in words)” value (MR) of the same molecule?
A: failed to activate

Q: What about the “Inhibition of aldosterone-induced MR-mediated transactivation, antagonist mode (in words)” value (MR) of the same molecule?
A: failed to alter

Q: And the “GR-mediated transactivation, agonist mode (in words)” value (GR)?
A: failed to activate

Q: And the “Inhibition of dexamethasone-induced GR-mediated transactivation, antagonist mode (in words)” value (GR)?
A: failed to alter

Q: What about the “ER-α transactivation” value (ER-α) of the same molecule?
A: failed to activate

Q: And the “Inhibition of estradiol-induced ER-α activity, antagonist mode (in words)” value (ER-α)?
A: failed to alter
